In ChEMBL document CHEMBL1157539, “Thousands of chemical starting points for antimalarial lead identification” (Nature, 2010):

Each compound was assayed on Plasmodium falciparum (assay: GSK_TCMDC: Inhibition of Plasmodium falciparum 3D7 in whole erythrocytes, using parasite LDH activity as an index of growth.). Conditions: not given.
Type: functional, organism-based
With O=C1Nc2cccc3c2C1(CCCCN1CCC(c2cc4ccncc4[nH]2)CC1)CCC3 (stereo not drawn) the XC50 was 911 nM.

Same assay, conditions: Plasmodium falciparum, 3D7
Work on O=S(=O)(c1c(Cl)cc(Cl)cc1Cl)N1CCCCC(c2ccc(C(F)(F)F)cc2)=N1 yielded an XC50 of 95 nM.
COc1ccc2ncc(F)c(CCN3CCC(NCc4ccc5c(c4)CCO5)CC3)c2n1 showed an XC50 of 677 nM.
With CC1=CC(=O)[C@@H](O)[C@]2(C)[C@H]3[C@@]4(O)OC[C@@]35[C@@H](C[C@@H]12)OC(=O)C[C@H]5[C@@H](C)[C@H]4O [CHAPARRINONE] the XC50 was 347 nM.
COc1ccc(-c2nonc2NC(=O)c2cccc(Cl)c2)cc1OC showed an XC50 of 876 nM.
In the case of O=c1cc(NCCCNCc2ccc(Cl)c(Cl)c2)[nH]c2ccc(Cl)cc12, the XC50 is reported as 344 nM.
O=C(Nc1ccc(Cl)cc1)Nc1ccc(Cn2ncc(N3CCCNCC3)c(Cl)c2=O)cc1 showed an XC50 of 783 nM.
CCOC(=O)c1ccc(NC(=O)NNC(=O)c2ccc(CCN3CCC(c4nc(COCC(F)(F)F)c(-c5ccc(F)cc5)o4)CC3)cc2)cc1 gave an XC50 of 574 nM.
c1ccc(CNCc2cccc(-c3cccc(-c4nc5ccccc5[nH]4)c3)c2)cc1 gave an XC50 of 569 nM.
COc1ccc2c(c1CCNCCCCNCCc1c(OC)ccc3c1CCCC3)CCCC2 gave an XC50 of 376 nM.
In the case of O=S(=O)(NCCN1CCCC1)c1ccc(-c2cccc(CNCc3ccccc3)c2)s1, the XC50 is reported as 806 nM.
Compound C=C(C)C1CC=C(CN2CCC(N3CCc4cc(NC(=O)c5cc(C)on5)ccc43)C2)CC1 (stereo not drawn) has an XC50 of 707 nM.
O=C(NCCCNc1ccc2ccccc2n1)c1cc2c(Cl)cc(Cl)cc2[nH]1 showed an XC50 of 604 nM.
In the case of O=[N+]([O-])c1cccc(S(=O)(=O)N2CCN(CC(O)COc3ccc(-c4ccccc4)cc3)CC2)c1 (stereo not drawn), the XC50 is reported as 1360 nM.
CC(NC(=O)c1ccc(O)c(-c2ccc(Cl)c(Cl)c2)c1)C(=O)NC1CCCCC1 (stereo not drawn) gave an XC50 of 844 nM.
With CCOC(=O)c1cnc2c(OC)cc(OC)c(Cl)c2c1Nc1cccc(C)c1C the XC50 was 310 nM.
CC(C)(C)c1ccc(C(=O)Nc2cccc(Nc3c(C(=O)NCc4cccc(C(F)(F)F)c4)cnc4c(O)cccc34)c2)cc1 gave an XC50 of 1090 nM.
O=C(Nc1ccc(F)cc1F)NC1CCN(c2ccnc3cc(Cl)ccc23)C1 (stereo not drawn) showed an XC50 of 245 nM.
Cn1nc(-c2ccccc2F)c2cc(C(=O)Nc3cccnc3)sc21 showed an XC50 of 810 nM.
COc1cccc2c(NCCNc3ccnc4c(OC)cccc34)ccnc12 gave an XC50 of 267 nM.
For O=C(/C=C/c1ccc(C(F)(F)F)cc1)NCCCCCN1CCN(C(=O)Nc2ccc(Cl)c(Cl)c2)CC1, the XC50 was 867 nM.
In the case of CCCCCCc1cc2cc(-c3csc(C=Cc4ccccc4)n3)c(=O)oc2cc1O, the XC50 is reported as 970 nM.
With CC(C)C[C@H](NC(=O)c1ccc(OCCN2CCOCC2)cc1)C(=O)N[C@H](/C=N/N1CC(=O)NC1=O)CCc1ccccc1 the XC50 was 277 nM.
Compound CC(OC(=O)c1ccc(C(=O)NCC2CC2)cc1)C(C)(C)C (stereo not drawn) has an XC50 of 791 nM.
Cc1ccccc1C1CCN(C2CCC(NC(=O)c3cc(-c4ccccc4)oc3C)CC2)CC1 (stereo not drawn) showed an XC50 of 1030 nM.
Compound COc1cccc(-c2cnc(N)c(-c3nc4cc(Cl)c(F)cc4[nH]3)c2)c1 has an XC50 of 536 nM.
Compound O=C(/C=C/c1ccc(Cl)c(Cl)c1)NCCCCCN1CCC(c2c[nH]c3ccc(O)cc23)CC1 has an XC50 of 886 nM.
O=C(NCC1CC1)C1CCN(C(c2ccccc2)c2cc(F)cc(F)c2)CC1 (stereo not drawn) showed an XC50 of 380 nM.
CN1CCCN(Cc2cccc(-c3cccc(NS(=O)(=O)c4cccc5cccnc45)c3)c2)CC1 gave an XC50 of 764 nM.
In the case of NC(=O)COc1c(C2CCN(CCCCNC(=O)c3ccc(-c4ccc(Cl)cc4)c(O)c3)CC2)ccc2c1CCCC2, the XC50 is reported as 706 nM.
For Cc1cc(N[C@@H](Cc2ccccc2)C(=O)NCc2cccc(F)c2)nc(Nc2ccccc2)n1, the XC50 was 930 nM.
For CCn1cc(-c2cc(C(=O)Nc3ccc(OC)cc3C)c3ccccc3n2)c(C)n1, the XC50 was 975 nM.
COc1ccc2c(=O)c(I)c(C)[nH]c2c1 showed an XC50 of 440 nM.
Work on Cc1cccc2nc(C3CCN(CC4CCN(C(=O)/C=C/c5ccc(Cl)c(Cl)c5)CC4)CC3)[nH]c12 yielded an XC50 of 485 nM.
O=C(Nc1ccc(Cl)c(C(F)(F)F)c1)c1ccc(Cl)c([N+](=O)[O-])c1 was tested, and the XC50 was 1120 nM.
For COc1cc(-c2cnc(N)c(-c3nc4ccccc4[nH]3)c2)cc(OC)c1OC, the XC50 was 191 nM.
In the case of O=C(Nc1cccc(C(F)(F)F)c1)NC1CCN(c2ccnc3ccccc23)CC1, the XC50 is reported as 988 nM.
FC(F)(F)COc1c(CNCCCCCCNCc2ccc3ccccc3c2OCC(F)(F)F)ccc2ccccc12 gave an XC50 of 761 nM.
CCCCCn1c(Sc2ccc(C#N)c([N+](=O)[O-])c2)nnc1-c1cc(OC)cc(OC)c1 showed an XC50 of 956 nM.
For Cc1noc(-c2ccc3c(c2)CCN(CCC2CCC(NC(=O)c4cc5ccccc5[nH]4)CC2)CC3)n1 (stereo not drawn), the XC50 was 689 nM.
In the case of O=C(Nc1ccc(-c2ccc(-c3nc4cc(C(F)(F)F)ccc4[nH]3)cc2)cc1)Nc1ccc(F)c(F)c1F, the XC50 is reported as 217 nM.
CCOc1cc(N)c2nc3ccc([N+](=O)[O-])cc3cc2c1 showed an XC50 of 145 nM.
For O=C(/C=C/c1ccc(Cl)c(Cl)c1)NCCCCCN1CCC(NC(=O)c2cc(Cl)ccc2F)CC1, the XC50 was 1160 nM.
Compound O=C(/C=C/c1ccccc1Cl)NC1CCC(CN2C3CCC2CC(c2c[nH]c4ccccc24)C3)CC1 (stereo not drawn) has an XC50 of 706 nM.
c1ccc(CN2CCC(NCc3ccccc3-c3cccc(CNC4CCCC4)c3)CC2)cc1 gave an XC50 of 718 nM.
In the case of CC(C)NCc1cccc(-c2ccc(NC(=O)c3ccc(F)cc3)cc2)c1, the XC50 is reported as 850 nM.
With CCC(=C(CC)c1ccc(O)c(CNC2CCCCC2)c1)c1ccc(O)c(CNC2CCCCC2)c1 the XC50 was 152 nM.
Cc1[nH]c(CNCCCNc2cc(=O)c3ccccc3[nH]2)c(Br)c1Br gave an XC50 of 1040 nM.
In the case of COc1cccc(NC(=O)c2cc(C(=O)Nc3cccc(OC)c3)cc([N+](=O)[O-])c2)c1, the XC50 is reported as 661 nM.
Compound Cc1cccc2nc(-c3cccc(-c4ccc(NC(=O)NC(C)C)cc4)c3)[nH]c12 has an XC50 of 754 nM.
S=C(NCCCCCN1CCC(c2c[nH]c3ccccc23)CC1)Nc1ccc(Cl)c(Cl)c1 was tested, and the XC50 was 709 nM.
With COc1cc(C(=O)Nc2cccc(-c3nc4ccccc4[nH]3)c2)ccc1OC(C)=O the XC50 was 762 nM.
Work on Cc1ccc(NC(=O)Nc2ccc(Cl)c(C(F)(F)F)c2)cc1-c1ccc(C(=O)NCCN2CCOCC2)cc1 yielded an XC50 of 811 nM.
Compound Cc1cccc2nc(-c3ccc(-c4cccc(C(=O)N5CCCCC5C(C)O)c4)s3)[nH]c12 (stereo not drawn) has an XC50 of 636 nM.
Compound CC1=C(C(=O)OC(C)C)C(c2ccccc2Cl)C2=C(CC(c3ccccc3)CC2=O)N1 (stereo not drawn) has an XC50 of 850 nM.
For O=C(CCc1c[nH]cn1)Nc1ccc(-c2ccc(-c3nc4ccccc4[nH]3)cc2)cc1, the XC50 was 705 nM.
Work on CC(C)c1ccc(NC(=O)N2CCc3ccc(OCCN(C(C)C)C(C)C)cc32)c(Br)c1 yielded an XC50 of 1090 nM.
Nc1ncc(-c2cccc(OCc3ccccc3)c2)cc1-c1nnc2ccc(Cl)nn12 showed an XC50 of 1430 nM.
O=c1cc(NCCCNCc2[nH]c3cc(Cl)cc(Cl)c3c2Cn2cccn2)[nH]c2ccccc12 was tested, and the XC50 was 972 nM.
In the case of O=C1Nc2cccc3c2C1(CCCCN1CCC(c2cc4ccncc4[nH]2)CC1)CCC3 (stereo not drawn), the XC50 is reported as 787 nM.
Work on CC1CCCCN1CCCNc1ncc2c(-c3ccc(NC(=O)Nc4cc(C(F)(F)F)ccc4F)c(F)c3)nn(C)c2n1 (stereo not drawn) yielded an XC50 of 263 nM.
COc1ccc2nccc([C@@H](O)CN3CCC(NC(=O)C(c4ccccc4C)N4CCC(Cc5ccccc5)CC4)CC3)c2c1 (stereo partly drawn) showed an XC50 of 261 nM.
With CC(C)C[C@H](Nc1ccnc(NCC2CCCCC2)n1)C(=O)Nc1ccccc1 the XC50 was 1430 nM.
Compound Cc1cccn2c(=O)c3cc(C(=O)NCCc4ccccc4)c(=N)n(CCCOC(C)C)c3nc12 has an XC50 of 481 nM.
Work on CN1CCN(CCCN(Cc2cccc(-c3cccc(CNCc4ccc5c(c4)OCO5)c3)c2)C(=O)CCC2CCCC2)CC1 yielded an XC50 of 952 nM.
With Cc1cnc2ccc(NS(=O)(=O)c3sc4ccc(Cl)cc4c3C)cc2c1N1CCNCC1 the XC50 was 807 nM.
For N#Cc1ccc(N[C@@H](CC2CCCCC2)C(=O)NCc2cc(F)c(F)cc2F)c2ccccc12, the XC50 was 946 nM.
With Cc1cccc(-c2c(C)nc(N)nc2N)c1 the XC50 was 1150 nM.
